The species named for one test is Homo sapiens. Put plainly: Inhibition of human recombinant FBPase using fructose-1,6-biphosphate as substrate at 10 uM incubated for 3 mins prior to substrate addition by spectrophotometric analysis.
Test [1] in a line: Inhibition of human recombinant FBPase using fructose-1,6-biphosphate as substrate incubated for 3 mins prior to substrate addition by spectrophotometric analysis.

Active and inactive are the calls of the source. The calls are words filed in the database; no cut-off is given here.

As usually defined, the inhibition is the change of the read-out against control, counted positive when it falls. Usually IC50 stands for the midpoint of a concentration-inhibition curve. `O=C(OCc1ccc([N+](=O)[O-])cc1)c1ccccc1[N+](=O)[O-]`: in the test listed under Homo sapiens, the inhibition amounted to 100%. In addition, the IC50 in test [1] is 1650 nM. The like results for `Cc1cc(Cl)ccc1OCCCC(=O)NC(CC(C)C)C(=O)O` (stereo not drawn) were, in that order, 60% and 2440 nM. Turning to `C[N+](C)(CCCCOc1c(Br)cc(Br)cc1Br)Cc1ccc([N+](=O)[O-])o1`, the inhibition in the test filed under Homo sapiens came to 100%. In addition, the concentration for half-maximal inhibition (IC50) in test [1] turned out to be 700 nM.

On to `CC1(C)C2CCC1(C)C(OCCC/N=C(\N)CSS(=O)(=O)O)C2` (stereo not drawn), for which the inhibition in the test listed under Homo sapiens is 81%. Besides, the IC50 in test [1] is 3800 nM. In the same order, the values of `CCOC(=O)c1csc(-c2csc(CCNC(=O)c3ccccc3)n2)n1` are 87% and 330 nM. In the case of `COc1cc(/C=C/Cc2c(O)ccc3c2OCO3)cc(OC)c1OC`, in the test listed under Homo sapiens, the inhibition result is “inactive”. In the case of `CC1(C)N=C(N)N=C(N)N1c1cccc(OCCOc2ccccc2[N+](=O)[O-])c1`, the inhibition in the test filed under Homo sapiens was found to be 100%. Besides, the IC50 in test [1] is 250 nM. Take `O=S(=O)(SCCCCSS(=O)(=O)c1ccc(Cl)cc1)c1ccc(Cl)cc1`: the inhibition in the test listed under Homo sapiens came out at 37%. The same measure, in the same setting: the result for `O=C1NC(=O)C2N=C(CNc3ccc(C(=O)O)cc3)NC2N1` (stereo not drawn) reads “inactive”. Turning to `O=C(O)c1ccccc1C(=O)CCC(=O)c1ccccc1C(=O)O`, the inhibition in the test listed under Homo sapiens worked out at 87%. Further, the IC50 in test [1] was 900 nM. With `COc1cc(C2=N/C(=C\c3cccc(O)c3O)C(=O)O2)cc(OC)c1OC`, the inhibition result in the test listed under Homo sapiens was “inactive”.

Consider `O=C(CCCOc1ccc(Cl)cc1Cl)NC(CC1NCc2ccccc21)C(=O)O` (stereo not drawn), for which, in the test listed under Homo sapiens, the inhibition stood at 67%. For the same compound, the IC50 in test [1] was 5880 nM.

On to `CCN1C(=O)/C(=C/c2ccc(O)c(S(=O)(=O)O)c2)SC1=S`, for which the inhibition in the test filed under Homo sapiens came out at 69%. Further, in test [1], the IC50 is 6020 nM.

`O=S(=O)(O)c1ccccc1/C=N/N=C/c1ccccc1S(=O)(=O)O`: the inhibition in the test listed under Homo sapiens is 100%. In addition, the IC50 in test [1] came out at 150 nM. Take `COCCOc1cc2ncnc(Nc3cccc(-c4csc(C)n4)c3)c2cc1OC`: the IC50 in test [1] is greater than 10000 nM.

As to `CCOc1cc2nc(Cc3ccccc3)nc(Nc3cccc(-c4csc(C)n4)c3)c2cc1OCC`, the IC50 in test [1] is greater than 10000 nM. In the case of `CCOc1cc2ncnc(Nc3cccc(-c4csc(N)n4)c3)c2cc1OCC`, the IC50 in test [1] came to 3500 nM. Regarding `Cc1nc(-c2cccc(Nc3ncnc4cc5ccccc5cc34)c2)cs1`, the 50% inhibitory concentration (IC50) in test [1] is greater than 10000 nM. On the same count and under the same terms, the result for `O=C(O)CCCc1c(C(=O)O)[nH]c2cc(Cl)cc(Cl)c12` reads 1000 nM; that for `COc1cc2c(Nc3cccc(-c4csc(C)n4)c3)ncnc2cc1OC(C)(C)C`, 1300 nM; that for `CCOc1cc2nc(COC)nc(Nc3cccc(-c4csc(C)n4)c3)c2cc1OCC`, 1400 nM. The same measure, in the same setting: the value for `CCOc1cc2ncnc(Nc3cccc(-c4nc[nH]n4)c3)c2cc1OCC` was 640 nM; that for `CCOc1cc2c(Nc3cccc(-c4csc(C)n4)c3)ncnc2cc1OC(C)C` was 420 nM. `CCOc1cc2ncnc(Nc3ccc(F)c(-c4csc(C)n4)c3)c2cc1OCC`: the IC50 in test [1] was determined as 610 nM.

Turning to `CCOc1cc2nc(C(C)C)nc(Nc3cccc(-c4csc(C)n4)c3)c2cc1OCC`, the IC50 in test [1] was found to be 5000 nM.

As to `COc1ccc(C(=O)/C=C2/Nc3ccc([N+](=O)[O-])cc3NC2=O)cc1`, the inhibition in the test filed under Homo sapiens came to 76%. Further, the IC50 in test [1] was 320 nM.

Consider `COc1cc2ncnc(Nc3cccc(Br)c3)c2cc1[N+](=O)[O-]`, for which the IC50 in test [1] is greater than 10000 nM.

As to `COC(=O)CCc1c(C(=O)O)[nH]c2cc(Cl)cc(Cl)c12`, in test [1], the IC50 came out at 7000 nM. Same read-out and setting: the result for `COc1cc2ncnc(Nc3cccc(Cl)c3)c2cc1OC` [TYRPHOSTIN AG-1478] reads 1300 nM. In the case of `COC(=O)CC(=O)CC(=O)c1cccc([N+](=O)[O-])c1`, the inhibition in the test filed under Homo sapiens turned out to be 74%. Further, the IC50 in test [1] turned out to be 2230 nM.

Regarding `CCOc1cc2nc(Cc3ccccc3)nc(Nc3cccc(Br)c3)c2cc1OCC`, in test [1], the IC50 was greater than 10000 nM. For `CCOc1cc2ncnc(Nc3cccc(-c4csc(OC)n4)c3)c2cc1OCC`, in test [1], the IC50 is 780 nM. As for `CCOc1nc(-c2cccc(Nc3ncnc4cc(OCC)c(OCC)cc34)c2)cs1`, the IC50 in test [1] stood at 6100 nM. Turning to `CCOc1cc2ncnc(Nc3cccc(-c4cncs4)c3)c2cc1OCC`, the IC50 in test [1] is 980 nM. In the case of `CCOc1cc2nc(CN(C)C)nc(Nc3cccc(-c4csc(C)n4)c3)c2cc1OCC`, in test [1], the IC50 amounted to 2000 nM. Still for that read-out and setting: the result for `CCOc1cc2nc(CC(=O)O)nc(Nc3cccc(-c4csc(C)n4)c3)c2cc1OCC` reads 960 nM. For the compound `C=CCN1C(=O)/C(=C/c2ccccc2OCC(=O)O)SC1=S`, in the test filed under Homo sapiens, the inhibition is 77%. Besides, the IC50 in test [1] amounted to 3460 nM.

As for `CCOc1cc2ncnc(Nc3ccc(F)c(-c4csc(C)n4)c3F)c2cc1OCC`, in test [1], the IC50 is greater than 10000 nM.

Consider `CCOc1cc2nc(CN(CC)CC)nc(Nc3cccc(Br)c3)c2cc1OCC`, for which the IC50 in test [1] is greater than 10000 nM. The same measure, in the same setting: the result for `CCOc1cc2nc(CCl)nc(Nc3cccc(Br)c3)c2cc1OCC` reads greater than 10000 nM; that for `CCOc1cc2ncnc(Nc3cccc(-c4ccccn4)c3)c2cc1OCC`, 390 nM. Regarding `CCOc1cc2ncnc(Nc3ccc(Cl)c(C)c3)c2cc1OCC`, in test [1], the IC50 was greater than 10000 nM. On the same count and under the same terms, the value for `CCOc1cc2nc(CC(C)C)nc(Nc3cccc(-c4csc(C)n4)c3)c2cc1OCC` was 1700 nM; that for `COc1cc2ncnc(Nc3cccc(-c4csc(C)n4)c3)c2cc1OC(C)C` was greater than 10000 nM; that for `CCOc1cc2ncnc(Nc3cccc(-c4cncnc4)c3)c2cc1OCC` was 1200 nM. `CCOc1cc2ncnc(Nc3cccc(-c4cc[nH]n4)c3)c2cc1OCC`: the IC50 in test [1] was 730 nM. The same measure, in the same setting: the result for `O=C(O)CCc1c(C(=O)O)[nH]c2cc(Cl)cc(Cl)c12` reads no less than 2500 nM; that for `O=C(O)CCc1c(CO)[nH]c2cc(Cl)cc(Cl)c12`, greater than 10000 nM; that for `Cc1nc(-c2cccc(Nc3ncnc4cc5c(cc34)OCCO5)c2)cs1`, greater than 10000 nM.

With `CCOc1cc2ncnc(Nc3cc(-c4csc(C)n4)ccc3CC)c2cc1OCC`, the IC50 in test [1] amounted to 2100 nM.

Source of the values: ChEMBL document CHEMBL2086262, “Ligand-based designing, in silico screening, and biological evaluation of new potent fructose-1,6-bisphosphatase (FBPase) inhibitors” (Eur J Med Chem, 2012).
